Measured values taken from DBAASP.
Converted amounts (≈) assume the structure as drawn. “And” between values parts separate entries of the source, which are not always exact repeats. Equal values may be shown once. One block for each compound: values may come before it.

Experiments:
Experiment in all cases: ≥ marks a high value that may be exact or a test limit, other limits are often not marked, values filed in µg/mL are converted to µM
[1] = system: Candida albicans NCYC 1467
[2] = system: Staphylococcus aureus ATCC 12493
[3] = system: Escherichia coli NCTC 10418
[4] = system: Pseudomonas aeruginosa ATCC 27853
[5] = system: Staphylococcus aureus NCTC 10788
[6] = system: Candida albicans NCPF 1467
[7] = system: Cryptococcus neoformans ATCC 28957
Ramulariopsis gossypii = system: Ramulariopsis gossypii
[8] = system: Fusarium oxysporum f.sp. vasinfectum
[9] = system: Staphylococcus aureus ATCC 25923
Fusarium solani = system: Fusarium solani
[10] = system: Xanthomonas campestris pv. citri
[11] = system: Escherichia coli ATCC 25922
Trichoderma asperellum = system: Trichoderma asperellum
Fusarium oxysporum = system: Fusarium oxysporum
[12] = system: Candida albicans ATCC 90028
[13] = system: Pectobacterium carotovorum
[14] = system: Bacillus subtilis ATCC 23857
[15] = system: Pseudomonas syringae pv. tabaci
[16] = system: Bacillus cereus ATCC 14579
[17] = system: Salmonella typhimurium ATCC 7731
[18] = system: Staphylococcus aureus ATCC 29213
Escherichia coli UB1005 = system: Escherichia coli UB1005
[19] = system: Staphylococcus aureus ATCC 43300
[20] = system: Enterococcus faecalis ATCC 29212
[21] = system: Bacillus subtilis CMCC 63501
[22] = system: Salmonella enterica subsp. enterica serovar Pullorum C79-13
[23] = system: Staphylococcus epidermidis ATCC 12228
[24] = system: Candida krusei CGMCC 2.1857
[25] = system: Salmonella enterica subsp. enterica serovar Pullorum ATCC 7913
[26] = system: Candida albicans CGMCC 2.2086
[27] = system: Candida tropicalis CGMCC 2.1975
[28] = system: Salmonella enterica subsp. enterica serovar Typhimurium ATCC 14028
Candida albicans = system: Candida albicans
[29] = system: Candida parapsilosis CGMCC 2.3989
Escherichia coli 1005 = system: Escherichia coli 1005
Bacillus megaterium Bm11 = system: Bacillus megaterium Bm11
Escherichia coli ML-35 = system: Escherichia coli ML-35
[30] = system: Serratia marcescens ATCC 8100
Escherichia coli D21 = system: Escherichia coli D21
[31] = system: Escherichia coli K12 MG1655

Compound: CC[C@H](C)[C@H](NC(=O)CN)C(=O)NCC(=O)NCC(=O)N[C@@H](C)C(=O)N[C@@H](CC(C)C)C(=O)N[C@@H](CC(C)C)C(=O)N[C@@H](CO)C(=O)N[C@@H](Cc1ccccc1)C(=O)NCC(=O)N[C@@H](CCCCN)C(=O)N[C@@H](CO)C(=O)N[C@@H](C)C(=O)N[C@@H](CC(C)C)C(=O)N[C@@H](CCCCN)C(=O)NCC(=O)N[C@@H](CC(C)C)C(=O)N[C@@H](C)C(=O)N[C@@H](CCCCN)C(=O)NCC(=O)N[C@@H](CC(C)C)C(=O)N[C@@H](C)C(=O)N[C@@H](CCC(=O)O)C(=O)N[C@@H](Cc1cnc[nH]1)C(=O)N[C@@H](Cc1ccccc1)C(N)=O [GIGGALLSFGKSALKGLAKGLAEHF]
MIC [2]: 6.55 µM (≈ 16 µg/mL) | MIC [3]: 6.55 µM (≈ 16 µg/mL) | MIC [6]: 1.64 µM (≈ 4 µg/mL) | MIC [4]: 26.2 µM (≈ 64 µg/mL) | MIC [5]: 1.64 µM (≈ 4 µg/mL)

Compound: CC[C@H](C)[C@H](N)C(=O)N[C@H](C(=O)N[C@@H](CCCN=C(N)N)C(=O)N[C@@H](CCCN=C(N)N)C(=O)N[C@H](C(=O)N[C@@H](CCCN=C(N)N)C(=O)N[C@@H](CCCN=C(N)N)C(=O)N[C@H](C(=O)N[C@H](C(N)=O)[C@@H](C)CC)[C@@H](C)CC)[C@@H](C)CC)[C@@H](C)CC [IIRRIRRII]
MIC [24]: 16 µM (≈ 19.3 µg/mL) | MIC [25]: ≥ 32 µM | MIC [26]: ≥ 64 µM | MIC [27]: 4 µM (≈ 4.83 µg/mL) | MIC [9]: > 64 µM | MIC [18]: 64 µM (≈ 77.3 µg/mL) | MIC [28]: 64 µM (≈ 77.3 µg/mL) | MIC [11]: 32 µM and 64 µM | MIC (Candida albicans): > 64 µM | MIC [29]: ≥ 64 µM | MIC [19]: 64 µM (≈ 77.3 µg/mL) | MIC [23]: 64 µM (≈ 77.3 µg/mL) | MIC (Escherichia coli 1005): 16 µM (≈ 19.3 µg/mL)

Compound: NC(=O)[C@H](CCCN=C(N)N)NC(=O)[C@H](Cc1c[nH]c2ccccc12)NC(=O)[C@H](Cc1c[nH]c2ccccc12)NC(=O)[C@H](CCCN=C(N)N)NC(=O)[C@H](CCCN=C(N)N)NC(=O)[C@H](Cc1c[nH]c2ccccc12)NC(=O)[C@H](CCCN=C(N)N)NC(=O)[C@H](CCCN=C(N)N)NC(=O)[C@H](Cc1c[nH]c2ccccc12)NC(=O)[C@H](Cc1c[nH]c2ccccc12)NC(=O)[C@@H](N)CCCN=C(N)N [RWWRRWRRWWR]
MIC [24]: 2 µM (≈ 3.77 µg/mL) | MIC [25]: 4 µM (≈ 7.54 µg/mL) | MIC [27]: 2 µM (≈ 3.77 µg/mL) | MIC [9]: 8 µM (≈ 15.1 µg/mL) | MIC [18]: 4 µM (≈ 7.54 µg/mL) | MIC [28]: 8 µM (≈ 15.1 µg/mL) | MIC (Candida albicans): 4 µM (≈ 7.54 µg/mL) | MIC [29]: 16 µM (≈ 30.2 µg/mL) | MIC [19]: 4 µM (≈ 7.54 µg/mL) | MIC [23]: 4 µM (≈ 7.54 µg/mL) | MIC (Escherichia coli 1005): 8 µM (≈ 15.1 µg/mL)

Now from value to compound:

MIC [1]: ≥ 512 µM | MIC [2]: ≥ 512 µM | MIC [3]: ≥ 512 µM | MIC [4]: > 512 µM | MIC [5]: ≥ 512 µM
Compound: CC[C@H](C)[C@@H]1NC(=O)[C@H](CO)NC(=O)[C@H](CCCCN)NC(=O)[C@H]([C@@H](C)O)NC(=O)[C@H](Cc2c[nH]c3ccccc23)NC(=O)[C@@H](NC(=O)CNC(=O)[C@H](CCCN=C(N)N)NC(=O)[C@H](CC(C)C)NC(=O)[C@H](C)N)CSSC[C@@H](C(=O)N[C@@H](CCCCN)C(N)=O)NC(=O)[C@@H]2CCCN2C(=O)[C@H](CCCCN)NC(=O)[C@@H]2CCCN2C(=O)[C@@H]2CCCN2C1=O [ALRGCWTKSIPPKPCK]

MIC [7]: 8 µM (≈ 18.4 µg/mL) | MIC (Ramulariopsis gossypii): 4 µM (≈ 9.21 µg/mL) | MIC [8]: 8 µM (≈ 18.4 µg/mL) | MIC [9]: 4 µM (≈ 9.21 µg/mL) | MIC (Fusarium solani): 16 µM (≈ 36.8 µg/mL) | MIC [10]: ≥ 64 µM | MIC [11]: 32 µM (≈ 73.7 µg/mL) | MIC (Trichoderma asperellum): ≥ 32 µM | MIC (Fusarium oxysporum): ≥ 32 µM | MIC [4]: 32 µM (≈ 73.7 µg/mL) | MIC [12]: 2.67 µM (≈ 6.15 µg/mL) | MIC [13]: ≥ 128 µM | MIC [14]: 8 µM (≈ 18.4 µg/mL) | MIC [15]: 16 µM (≈ 36.8 µg/mL) | MIC [16]: ≥ 64 µM
Compound: CSCC[C@H](NC(=O)[C@H](Cc1ccccc1)NC(=O)CNC(=O)[C@H](Cc1cnc[nH]1)NC(=O)[C@H](CC(C)C)NC(=O)[C@H](CO)NC(=O)CN)C(=O)N[C@@H](Cc1ccc(O)cc1)C(=O)N[C@@H](CCCN=C(N)N)C(=O)N[C@@H](Cc1ccc(O)cc1)C(=O)N[C@@H](CC(C)C)C(=O)N[C@@H](CCCCN)C(=O)N[C@@H](CC(N)=O)C(=O)N[C@@H](CCSC)C(=O)N[C@H](C(=O)N[C@@H](CC(C)C)C(=O)N[C@@H](CC(N)=O)C(=O)N[C@@H](CC(C)C)C(=O)N[C@@H](Cc1ccccc1)C(N)=O)C(C)C [GSLHGFMYRYLKNMVLNLF]

MIC [17]: ≥ 64 µM | MIC [18]: 16 µM (≈ 29.9 µg/mL) | MIC [11]: 8 µM (≈ 14.9 µg/mL) | MIC (Escherichia coli UB1005): 8 µM (≈ 14.9 µg/mL) | MIC [19]: 32 µM (≈ 59.8 µg/mL) | MIC [4]: 16 µM (≈ 29.9 µg/mL) | MIC [20]: 32 µM (≈ 59.8 µg/mL) | MIC [21]: 16 µM (≈ 29.9 µg/mL) | MIC [22]: 8 µM (≈ 14.9 µg/mL) | MIC [23]: 32 µM (≈ 59.8 µg/mL)
Compound: CC[C@H](C)[C@H](N)C(=O)N[C@@H](Cc1cnc[nH]1)C(=O)N[C@@H](CCCCN)C(=O)N[C@@H](Cc1ccccc1)C(=O)N[C@@H](Cc1c[nH]c2ccccc12)C(=O)N[C@@H](CCCN=C(N)N)C(=O)NCC(=O)NCC(=O)N[C@@H](CCCN=C(N)N)C(=O)N[C@@H](Cc1c[nH]c2ccccc12)C(=O)N[C@@H](Cc1ccccc1)C(=O)N[C@@H](CCCCN)C(=O)N[C@@H](Cc1cnc[nH]1)C(=O)N[C@H](C(N)=O)[C@@H](C)CC [IHKFWRGGRWFKHI]

MIC (Bacillus megaterium Bm11): 16 µM (≈ 29.2 µg/mL) | MIC [28]: 0.5 µM (≈ 0.914 µg/mL) | MIC (Escherichia coli ML-35): 2 µM (≈ 3.65 µg/mL) | MIC [30]: 8 µM (≈ 14.6 µg/mL) | MIC [23]: > 64 µM | MIC (Escherichia coli D21): 1 µM (≈ 1.83 µg/mL)
Compound: CC(C)C[C@H](NC(=O)[C@H](Cc1ccc(O)cc1)NC(=O)[C@@H]1CCCN1C(=O)[C@@H]1CCCN1C(=O)[C@H](CCCN=C(N)N)NC(=O)[C@@H]1CCCN1C(=O)[C@H](CCCCN)NC(=O)[C@H](CCCCN)NC(=O)[C@@H](N)CCCCN)C(=O)N1CCC[C@H]1C(=O)N[C@@H](CCCN=C(N)N)C(=O)N1CCC[C@H]1C(=O)N[C@@H](CCCN=C(N)N)C(=O)N1CCC[C@H]1C(=O)N1CCC[C@H]1C(=O)O [KKKPRPPYLPRPRPP]

MIC [31]: ≥ 63.6 µM
Compound: CC(C)C[C@H](NC(=O)[C@H](Cc1ccccc1)NC(=O)[C@H](CCCCN)NC(=O)[C@@H](N)CO)C(=O)N[C@@H](CO)C(=O)N[C@@H](CCCCN)C(=O)N[C@@H](CCCCN)C(=O)N1CCC[C@H]1C(=O)N[C@@H](CCCCN)C(=O)N[C@@H](CCCCN)C(=O)N[C@@H](CC(C)C)C(=O)N[C@@H](Cc1ccccc1)C(=O)N[C@@H](Cc1c[nH]c2ccccc12)C(=O)N[C@@H](Cc1ccccc1)C(=O)N[C@@H](CCCN=C(N)N)C(=O)N[C@@H](C)C(=O)O [SKFLSKKPKKLFWFRA]
